This is an account of results in article PMC3946276 (European journal of pharmacology, 2013).

One may read the Kd as the constant that tells how readily two partners part at equilibrium. Read a low Kd as higher affinity.

The target in this assay is T1, G-protein coupled receptor 30 (GPR30) (Rattus norvegicus, UniProt O08878).
T1 sequence (O08878 1-375): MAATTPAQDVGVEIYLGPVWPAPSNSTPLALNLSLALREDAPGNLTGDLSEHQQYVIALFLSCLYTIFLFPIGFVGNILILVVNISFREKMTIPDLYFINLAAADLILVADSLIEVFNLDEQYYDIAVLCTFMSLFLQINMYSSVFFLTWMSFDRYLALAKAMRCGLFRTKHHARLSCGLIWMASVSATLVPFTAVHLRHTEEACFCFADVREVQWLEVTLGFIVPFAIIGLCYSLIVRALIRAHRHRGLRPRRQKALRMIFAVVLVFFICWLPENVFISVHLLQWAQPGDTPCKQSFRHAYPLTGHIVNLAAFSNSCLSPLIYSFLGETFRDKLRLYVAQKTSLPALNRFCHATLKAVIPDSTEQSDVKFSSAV
The experiment in a line: [3H]2ME2 saturation radioligand binding on WB cell membranes.

For `COc1cc2c(cc1O)CC[C@@H]1[C@@H]2CC[C@]2(C)[C@@H](O)CC[C@@H]12` [2ME2, 2-methoxyestradiol], the Kd was roughly 10.1 nM.
